Measurements from PubChem BioAssay (NCI).
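Step 1: Grow cells in 96-well plates. Step 2: Expose to compound for 48 hours at 5 concentrations. Step 3: Interpolate endpoints linearly; if unreached, use highest concentration. TGI denotes the concentration required for complete inhibition of growth.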

Key:
Test in all cases: NCI-60 cell line screen, 48 h
DU-145 prostate = system: DU-145 prostate
IGROV1 ovarian = system: IGROV1 ovarian
MALME-3M melanoma = system: MALME-3M melanoma
MCF7 breast = system: MCF7 breast
MDA-MB-435 = system: MDA-MB-435
MDA-N = system: MDA-N
MOLT-4 leukemia = system: MOLT-4 leukemia
NCI-H226 lung = system: NCI-H226 lung
NCI-H23 lung = system: NCI-H23 lung
NCI-H460 lung = system: NCI-H460 lung
OVCAR-3 ovarian = system: OVCAR-3 ovarian
OVCAR-4 ovarian = system: OVCAR-4 ovarian
PC-3 prostate = system: PC-3 prostate
SF-295 CNS = system: SF-295 CNS
SK-OV-3 ovarian = system: SK-OV-3 ovarian
SN12C renal = system: SN12C renal
SW-620 colon = system: SW-620 colon
T-47D breast = system: T-47D breast
UO-31 renal = system: UO-31 renal

Row | Compound | TGI (DU-145 prostate) [µM] | TGI (IGROV1 ovarian) [µM] | TGI (MALME-3M melanoma) [µM] | TGI (MCF7 breast) [µM] | TGI (MDA-MB-435) [µM] | TGI (MDA-N) [µM] | TGI (MOLT-4 leukemia) [µM] | TGI (NCI-H226 lung) [µM] | TGI (NCI-H23 lung) [µM] | TGI (NCI-H460 lung) [µM] | TGI (OVCAR-3 ovarian) [µM] | TGI (OVCAR-4 ovarian) [µM] | TGI (PC-3 prostate) [µM] | TGI (SF-295 CNS) [µM] | TGI (SK-OV-3 ovarian) [µM] | TGI (SN12C renal) [µM] | TGI (SW-620 colon) [µM] | TGI (T-47D breast) [µM] | TGI (UO-31 renal) [µM]
1 | CCC1C(c2cc(OC)c(OC)c(OC)c2)c2cc3c(cc2OC1N1CCCC1)OCO3 (stereo unspecified) | 14.6 | 17.8 | 40.3 | 13.7 | 1.07 | 0.795 | 22.8 | 8.78 | 39 | 12.4 | 8.53 | > 76 | > 37.6 | 8.25 | 26.6 | 31.8 | 45.4 | 41.9 | 23.1
2 | COc1cc(/C=C2/CCS(=O)(=O)c3ccc(C)cc3C2=O)cc(OC)c1OC | > 27.6 | > 39.4 | > 36.3 | 14.9 | > 27.2 | > 33.3 | > 100 | 45.9 | > 36.2 | 13.5 | 20.1 | > 100 | > 100 | 42.1 | 37.8 | 21.9 | > 45.4 | > 52.7 | 23.4
3 | Cc1n[nH]c(=O)c2cc(-c3ccccc3)[nH]c12 | > 100 | > 100 | > 100 | > 100 | > 100 | > 100 | > 100 | > 100 | > 100 | > 100 | > 100 | > 100 | 96.6 | > 100 | > 100 | > 100 | > 100 | > 100 | > 100
4 | COc1ccc(NC(=O)/C(=N\NC(=O)C[n+]2ccccc2)c2c(O)c3ccc(O)cc3oc2=O)c([N+](=O)[O-])c1 | > 100 | > 100 | > 100 | > 100 | > 100 | > 100 | > 100 | > 100 | > 100 | > 100 | > 100 | > 100 | > 100 | > 100 | > 100 | > 100 | > 100 | > 100 | > 100
